Source: patent US8466176B2 (priority 2008, dated 2013)

Experiment: logP(HCOOH) reported with HPLC/MS
[1] = HCOOH (formic acid), logP(HCOOH), HPLC/MS
[2] = method [b]: LC-MS at pH 2.7, 0.1% formic acid in water and acetonitrile, linear gradient 10% to 95% acetonitrile
[3] = reversed phase HPLC column, pH 2.7, log p, method [b]: LC-MS at pH 2.7, 0.1% formic acid in water and acetonitrile, linear gradient 10% to 95% acetonitrile

Structure (SMILES)	chromatographic logP [1]	log p [2]	further results
Cc1cccc(NC(=O)C(C)(C)C)[n+]1[O-] [2,2-dimethyl-N-(6-methyl-1-oxidopyridin-2-yl)propanamide]	1.5	–	–
Cc1cccc(NC(=O)C(C)(C)C)n1 [2,2-dimethyl-N-(6-methylpyridin-2-yl)propanamide]	1.2	–	–
Cc1cccc(C2OCCO2)[n+]1[O-] [2-(1,3-dioxolan-2-yl)-6-methylpyridine 1-oxide]	0.45	–	–
Cc1cccc(C2OCCO2)n1 [2-(1,3-dioxolan-2-yl)-6-methylpyridine]	1.21	–	–
CN(C)c1cccc(C(=NOCc2cccc(N3C(=O)c4ccccc4C3=O)n2)c2nnnn2C)c1 [2-(6-{[({[3-(dimethylamino)phenyl](1-methyl-1H-tetrazol-5-yl)methylene}amino)oxy]methyl}pyridin-2-yl)-1H-isoindole-1,3(2H)-dione]	3.17	–	–
CSc1cccc(C(=NOCc2cccc(N3C(=O)c4ccccc4C3=O)n2)c2nnnn2C)c1 [2-(6-{[({[3-(methylsulfanyl)phenyl](1-methyl-1H-tetrazol-5-yl)methylene}amino)oxy]methyl}pyridin-2-yl)-1H-isoindole-1,3(2H)-dione]	–	–	chromatographic logP (logP(HCOOH), HPLC/MS): 3.39
Cc1sc(Br)nc1CBr [2-bromo-4-(bromomethyl)-5-methyl-1,3-thiazole]	–	–	chromatographic logP (HPLC, logP(HCOOH), HPLC/MS): 2.64
O=C1c2ccccc2C(=O)N1Cc1cccc(CCl)n1 [2-{[6-(chloromethyl)pyridin-2-yl]methyl}-1H-isoindole-1,3(2H)-dione]	2.51	–	–
CON(C)C(=O)c1cccc(N(C)C)c1 [3-(dimethylamino)-N-methoxy-N-methylbenzamide]	0.95	–	–
CN(C)c1cccc(C(=NO)c2nnnn2C)c1 [3-[(hydroxyimino)(1-methyl-1H-tetrazol-5-yl)methyl]-N,N-dimethylaniline]	1.17	–	–
CSc1cccc(C(=NOCc2csc(N)n2)c2nnnn2C)c1 [4-{[({[3-(methylsulfanyl)phenyl](1-methyl-1H-tetrazol-5-yl)methylene}amino)oxy]methyl}-1,3-thiazol-2-amine]	1.76	–	–
Fc1ccc(Br)nc1CBr [6-bromo-2-(bromomethyl)-3-fluoropyridine]	–	–	chromatographic logP (logP(HCOOH), HPLC/MS): 2.58
Cc1c(F)ccc(Br)[n+]1[O-] [6-bromo-3-fluoro-2-methylpyridine 1-oxide]	0.56	–	–
CN(C)c1cccc(C(=NOCc2cccc(N)n2)c2nnnn2C)c1 [6-{[({[3-(dimethylamino)phenyl](1-methyl-1H-tetrazol-5-yl)methylene}amino)oxy]methyl}pyridin-2-amine]	1.19	–	–
CSc1cccc(C(=NOCc2cccc(N)n2)c2nnnn2C)c1 [6-{[({[3-(methylsulfanyl)phenyl](1-methyl-1H-tetrazol-5-yl)methylene}amino)oxy]methyl}pyridin-2-amine]	1.42	–	–
Cc1sc(Br)nc1CO [(2-bromo-5-methyl-1,3-thiazol-4-yl)methanol]	1.1	–	–
OCc1nc(Br)ccc1F [(6-bromo-3-fluoropyridin-2-yl)methanol]	0.92	–	–
Cc1nnnn1C(=NOCc1cccc(N=CNC#N)n1)c1ccccc1 [Example 1]	–	2.22^[b]	–
CCN(C)C=Nc1cccc(CON=C(c2ccccc2)n2nnnc2C)n1 [Example 3]	–	1.43^[b]	–
Cc1nnnn1C(=NOCc1cccc(NC(=S)NCc2ccc(Cl)c(Cl)c2)n1)c1ccccc1 [Example 4]	–	4.09^[b]	–
Cc1nnnn1C(=NOCc1cccc(NC(=S)Nc2ccccc2)n1)c1ccccc1 [Example 5]	–	3.31^[b]	–
CCCCCCCCNC(=S)Nc1cccc(CON=C(c2ccccc2)n2nnnc2C)n1 [Example 6]	–	4.97^[b]	–
Cc1nnnn1C(=NOCc1cccc(NC(=S)NCCc2ccccc2)n1)c1ccccc1 [Example 7]	–	3.67^[b]	–
Cc1nnnn1C(=NOCc1cccc(NC(=S)NC2CCCCC2)n1)c1ccccc1 [Example 8]	–	3.81^[b]	–
Cc1nnnn1C(=NOCc1cccc(NC(=S)NC2CCCC2)n1)c1ccccc1 [Example 9]	–	3.53^[b]	–

Structure (SMILES)	chromatographic logP [1]	log p [2]	further results
Cc1nnnn1C(=NOCc1cccc(NC(=S)NCc2ccccc2)n1)c1ccccc1 [Example 10]	–	3.52^[b]	–
C=CCNC(=S)Nc1cccc(CON=C(c2ccccc2)n2nnnc2C)n1 [Example 11]	–	3.09^[b]	–
Cc1nnnn1C(=NOCc1cccc(NC(=S)NC(C)C)n1)c1ccccc1 [Example 12]	–	3.22^[b]	–
CCCCCNC(=S)Nc1cccc(CON=C(c2ccccc2)n2nnnc2C)n1 [Example 13]	–	3.82^[b]	–
COC(=O)c1cccc(CON=C(c2ccccc2)n2nnnc2C)n1 [Example 14]	–	2.47^[b]	–
Cc1nnnn1C(=NOCc1cccc(C(=O)O)n1)c1ccccc1 [Example 15]	–	1.97^[b]	–
CCCCCNC(=O)c1cccc(CON=C(c2ccccc2)n2nnnc2C)n1 [Example 16]	–	3.52^[b]	–
Cc1cccc(CON=C(c2ccccc2)c2nnnn2C)n1 [Example 42]	–	1.67^[b]	–
Cn1nnnc1C(=NOCc1ncc(C(F)(F)F)cc1Cl)c1ccccc1 [Example 43]	–	3.76^[b]	–
Cn1nnnc1C(=NOCc1cccc(CN)n1)c1ccccc1 [Example 52, 1-{6-[({[(1-methyl-1H-tetrazol-5-yl)(phenyl)methylene]amino}oxy)methyl]pyridin-2-yl}methanamine]	–	–	chromatographic logP (HPLC, logP(HCOOH), HPLC/MS): 1.23; chromatographic logP [3]: 1.23
CCCCCC(=O)NCc1cccc(CON=C(c2ccccc2)c2nnnn2C)n1 [Example 53, N-({6-[({[(1-methyl-1H-tetrazol-5-yl)(phenyl)methylene]amino}oxy)methyl]pyridin-2-yl}methyl)hexanamide]	2.88	–	chromatographic logP [3]: 2.88
Cn1nnnc1C(=NOCc1cccc(CNC(=O)Cc2ccccc2)n1)c1ccccc1 [Example 54]	–	2.7^[b]	–
Cn1nnnc1C(=NOCc1cccc(CNC(=O)C(C)(C)C)n1)c1ccccc1 [Example 55]	–	2.58^[b]	–
CC(C)CC(=O)NCc1cccc(CON=C(c2ccccc2)c2nnnn2C)n1 [Example 56]	–	2.51^[b]	–
CCCCC(=O)NCc1cccc(CON=C(c2ccccc2)c2nnnn2C)n1 [Example 57]	–	2.56^[b]	–
Cn1nnnc1C(=NOCc1cccc(CNC(=O)CCc2ccccc2)n1)c1ccccc1 [Example 58]	–	2.82^[b]	–
CCCCCOC(=O)NCc1cccc(CON=C(c2ccccc2)c2nnnn2C)n1 [Example 60]	–	3.48^[b]	–
CCCCOC(=O)NCc1cccc(CON=C(c2ccccc2)c2nnnn2C)n1 [Example 63]	–	3.19^[b]	–
CC(C)C(C)NC(=O)c1cccc(CON=C(c2ccccc2)c2nnnn2C)n1 (stereo not shown) [Example 75]	–	3.44^[b]	–
CC(=O)N(CCC1CCCCC1)c1cccc(CON=C(c2ccccc2)c2nnnn2C)n1 [Example 76]	–	4.16^[b]	–
CN(C)C(=O)c1cccc(CON=C(c2ccccc2)c2nnnn2C)n1 [Example 77]	–	2.04^[b]	–
CC(C)c1nc(CON=C(c2ccccc2)c2nnnn2C)cs1 [Example 78]	–	3.39^[b]	–
Cn1nnnc1C(=NOCc1cccc(F)n1)c1ccccc1 [Example 79]	–	2.77^[b]	–
COC[C@H](C)NC(=O)c1cccc(CON=C(c2ccccc2)c2nnnn2C)n1 [Example 83]	–	2.7^[b]	–
CC(C)NC(=O)c1cccc(CON=C(c2ccccc2)c2nnnn2C)n1 [Example 84]	–	2.84^[b]	–
